What was measured:
TLR2/1 = target: T1, TLR2/1 (Homo sapiens, UniProt O60603); experiment: TLR2/1 (Pam3CSK4)-induced NF-κB/AP-1 SEAP reporter in HEK-Blue hTLR2 cells; format: cell-based; settings: for TLR2-mediated NF-κB activation in primary screen, TLR2/1 (in words) / IC50: Pam3CSK4 10 ng/mL; for TLR2-mediated NF-κB activation in primary screen, TLR2/1 (in words): Figure 3A; for IC50: HEK-Blue hTLR2 cells, n=3, 95 % confidence interval in brackets; for Pam3CSK4-induced TLR2/1 response (remaining): compound at 50 μM, 1 h pre-incubation, Pam3CSK4 10 ng/mL 24 h
T1 construct: host or cells: HEK-Blue hTLR2 cells
Method: (§1) Figure 3 Inhibition of TLR2‐dependent NF‐κB activation and IL‐8 secretion. A) HEK‐Blue hTLR2 cells were pre‐incubated with CU‐CPT22 or compounds 1–6 and 9–11 for 1 h and then stimulated additionally with TLR2/1 agonist Pam3CSK4 (10 ng/mL) or TLR2/6 agonist Pam2CSK4 (1 ng/mL) for 24 h. B) HEK‐Blue hTLR2 cells were pre‐incubated with increasing concentrations of 4, 6, 9, 10 and then stimulated additionally with Pam3CSK4 or Pam2CSK4 for 24 h. Supernatants were tested for TLR2‐mediated NF‐κB/AP‐1 activity by quantification of SEAP release (OD640). C) THP‐1 macrophages were incubated with CU‐CPT22 (25 μM) or compound 6 for 1 h and afterwards stimulated with Pam3CSK4 (10 ng/mL), Pam2CSK4 (1ng/mL), LPS (10 ng/mL), flagellin (1 μg/mL), CL075 (8 μM) or ODN2006 (5 μM) for 24 h. Supernatants were analyzed for IL‐8 secretion by ELISA. Mean+SD or ±SD (n=3).
(§2) Cell culture: Human embryonic kidney (HEK)‐Blue hTLR2 cells (InvivoGen, Touluse, France) were used from passage 5 to 20. Stimulation of the cells with TLR2 agonists leads to production and secretion of NF‐κB‐inducible embryonic alkaline phosphatase (SEAP). The enzyme transforms the substrate QUANTI‐Blue (InvivoGen) into a blue dye that was detected by optical density (OD) at 640 nm as previously described.11a, 12 THP‐1 cells (DSMZ, Braunschweig, Germany) from passage 10 to 15 were cultured as previously reported.13 For the generation of THP‐1 macrophages, THP‐1 monocytes were first incubated with 25 ng/mL Phorbol 12‐myristate 13‐acetate (PMA, Sigma‐Aldrich) for 48 h and afterwards rested for 24 h. The cell lines were cultured at 37 °C in a humidified atmosphere of 5 % CO2 and 95 % air and were regularly tested negative for mycoplasma contamination (VenorGeM Classic Mycoplasma PCR detection kit, Minerva Biolabs, Berlin, Germany).
(§3) Cell stimulation: HEK‐Blue hTLR2 cells (4×10^4 cells/well) and THP‐1 macrophages (2×10^5 cells/well) were cultured in 96‐well plates and 24‐well plates (TPP, Trasadingen, Switzerland). After cells were washed with phosphate‐buffered saline (PBS, Sigma‐Aldrich), cell stimulation was done in OptiMEM (ThermoFisher Scientific). The tested compounds and CU‐CPT22 (50 mM) were dissolved in DMSO. Final DMSO concentrations in cell culture were below 0.2 % (v/v). […] For co‐stimulation of TLR2 agonists and tested modulators, cells were preincubated with the compounds or CU‐CPT22 for 1 h and afterwards stimulated with the agonists.
(§4) Statistical analysis: Data of the bar charts are shown as mean+SD. Potency (IC50) data are presented as mean with the confidence interval (95 %). Statistical analysis was done by using GraphPad Prism 6.0 (GraphPad software, San Diego, USA). Nonlinear regression was used to plot and analyze concentration‐response curves and to obtain IC50 values.

TLR2/6 = target: T2, TLR2/6 (Homo sapiens, UniProt O60603); experiment: TLR2/6 (Pam2CSK4)-induced NF-κB/AP-1 SEAP reporter in HEK-Blue hTLR2 cells; format: cell-based; settings: for TLR2-mediated NF-κB activation in primary screen, TLR2/6 (in words) / IC50: Pam2CSK4 1 ng/mL; for TLR2-mediated NF-κB activation in primary screen, TLR2/6 (in words): Figure 3A; for IC50: HEK-Blue hTLR2 cells, n=3, 95 % confidence interval in brackets; for Pam2CSK4-induced TLR2/6 response (remaining): compound at 50 μM, 1 h pre-incubation, Pam2CSK4 1 ng/mL 24 h
T2 construct: host or cells: HEK-Blue hTLR2 cells
Method: as §1, §2, §3, §4

TLR2 = target: T3, TLR2 (Homo sapiens, UniProt O60603); experiment: Agonistic TLR2 activity, SEAP production in HEK-Blue hTLR2 cells; format: cell-based; settings: compounds alone for 24 h, SEAP OD 640 nm
T3 construct: host or cells: HEK-Blue hTLR2 cells
Method: as §2
(§5) 1.1 Supplementary Figure 1: Agonistic activity and cell viability […]
up to 50 µM. (A) HEK-Blue hTLR2 cells were stimulated with Pam3CSK4 (10 ng/ml) or the compounds 1-9 for 24 h. SEAP production was detected by QUANTI-Blue as OD at 640 nm. (B) HEK-Blue hTLR2 cells were stimulated with DMSO (10% v/v) or the compounds for 24 h. Cell viability was determined by MTT assay and normalized to unstimulated cells (dashed line). Mean +SD (n=3). […]

HEK-Blue hTLR2 cells = experiment: Cell viability by MTT assay; format: cell-based, human; settings: 24 h
Method: Cell viability: Cell viability was assessed by the MTT assay in HEK Blue hTLR2 cells as previously described.14 10 % (v/v) DMSO (Carl Roth) served as control and the viability of untreated cells was defined as 100 %.
as §5
up to 50 µM. (A) HEK-Blue hTLR2 cells were stimulated with Pam3CSK4 (10 ng/ml) or the compounds 1-9 for 24 h. SEAP production was detected by QUANTI-Blue as OD at 640 nm. (B) HEK-Blue hTLR2 cells were stimulated with DMSO (10% v/v) or the compounds for 24 h. Cell viability was determined by MTT assay and normalized to unstimulated cells (dashed line). Mean +SD (n=3).
(1 picture or pasted object on this page, not shown here)

other TLR subtypes = experiment: IL-8 secretion (ELISA) in THP-1 macrophages stimulated with agonists of other TLRs; format: cell-based, human; settings: LPS, flagellin, CL075 or ODN2006 for 24 h
Method: as §1, with “C) THP‐1 macrophages were incubated with CU‐CPT22 (25 μM) or compound 6 for 1 h and afterwards stimulated with Pam3CSK4 (10 ng/mL), Pam2CSK4 (1ng/mL), LPS (10 ng/mL), flagellin (1 μg/mL), CL075 (8 μM) or ODN2006 (5 μM) for 24 h.” left out, “Mean+SD or ±SD (n=3).” left out
Cell culture: Human embryonic kidney (HEK)‐Blue hTLR2 cells (InvivoGen, Touluse, France) were used from passage 5 to 20. […] The enzyme transforms the substrate QUANTI‐Blue (InvivoGen) into a blue dye that was detected by optical density (OD) at 640 nm as previously described.11a, 12 THP‐1 cells (DSMZ, Braunschweig, Germany) from passage 10 to 15 were cultured as previously reported.13 For the generation of THP‐1 macrophages, THP‐1 monocytes were first incubated with 25 ng/mL Phorbol 12‐myristate 13‐acetate (PMA, Sigma‐Aldrich) for 48 h and afterwards rested for 24 h. […]
ELISA: Commercially available ELISA kits were used for detecting human IL‐8 levels in cell culture supernatants (ELISA‐Ready Set Go, Invitrogen by Thermo Fisher Scientific).

[1] = Chemical stability toward oxidation; format: physicochemical; settings: aerobic conditions; 7 and 8 on debenzylation of the protected intermediates
Text: Aromatic ketone 5, in which the amide linker between two benzene rings is replaced by a ketomethylene unit, was obtained via the direct C‐acylation of resorcinol (1,3‐diphenol) with 3,4‐dimethoxy‐phenyl acetic acid using boron trifluoride diethyl etherate as the activating Lewis acid in 19 % yield. Compounds 1–6 were isolated with >95 % purity by column chromatography. Synthesis of the trihydroxy‐derivatives, ethyl 3‐(2,3,4‐trihydroxy‐benzamido)benzoate 7 and ethyl 3‐(3,4,5‐trihydroxy‐benzamido)benzoate 8 was attempted following the same strategy as in Scheme 2. […] 7 and 8 therefore could not be isolated and tested biologically.

T2 sequence (O60603 21-784): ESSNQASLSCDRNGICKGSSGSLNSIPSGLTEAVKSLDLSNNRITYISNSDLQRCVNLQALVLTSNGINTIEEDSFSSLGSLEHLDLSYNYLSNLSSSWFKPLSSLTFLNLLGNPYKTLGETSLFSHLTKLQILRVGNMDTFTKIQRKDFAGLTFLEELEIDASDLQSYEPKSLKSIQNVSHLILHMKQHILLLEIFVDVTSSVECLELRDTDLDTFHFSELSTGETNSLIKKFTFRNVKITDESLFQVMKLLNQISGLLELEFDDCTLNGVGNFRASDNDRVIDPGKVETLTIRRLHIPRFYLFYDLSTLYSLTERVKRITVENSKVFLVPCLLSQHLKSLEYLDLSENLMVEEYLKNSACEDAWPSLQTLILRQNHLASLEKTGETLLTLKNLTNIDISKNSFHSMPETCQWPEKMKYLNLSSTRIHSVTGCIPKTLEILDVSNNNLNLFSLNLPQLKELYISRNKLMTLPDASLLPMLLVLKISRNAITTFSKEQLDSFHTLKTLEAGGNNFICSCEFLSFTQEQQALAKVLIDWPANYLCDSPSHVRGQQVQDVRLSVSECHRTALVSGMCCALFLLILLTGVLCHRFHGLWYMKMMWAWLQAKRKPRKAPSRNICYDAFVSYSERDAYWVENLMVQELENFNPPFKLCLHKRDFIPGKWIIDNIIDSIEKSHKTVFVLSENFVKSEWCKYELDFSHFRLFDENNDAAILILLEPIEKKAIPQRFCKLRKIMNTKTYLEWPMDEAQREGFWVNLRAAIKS
T1 sequence (O60603 21-784): as above
T3 sequence (O60603 21-784): as above

Structure (SMILES) | TLR2-mediated NF-κB activation in primary screen, TLR2/1 (in words) (TLR2/1) | TLR2-mediated NF-κB activation in primary screen, TLR2/6 (in words) (TLR2/6) | IC50 (TLR2/1) [µM] | Pam3CSK4-induced TLR2/1 response (remaining) (TLR2/1) | IC50 (TLR2/6) [µM] | chemical stability / sensitivity to oxidation [1] | other results
CCOC(=O)c1cccc(NC(=O)c2ccc(O)cc2O)c1 [Compound 1, Ethyl 3‐(2,4‐dihydroxy‐benzamido)benzoate] | Except for 1, all selected compounds decreased | Except for 1, all selected compounds decreased | – | – | – | – | –
CCOC(=O)c1cccc(NC(=O)Cc2ccc(OC)c(OC)c2)c1 [Compound 4, Ethyl 3‐(2‐(3,4‐dimethoxyphenyl)acetamido)benzoate] | – | – | 44.9 | less than 40% | 61.9 | – | –
CCOC(=O)c1cccc(NC(=O)c2cc(O)cc(O)c2)c1 [Compound 6, Ethyl 3‐(3,5‐dihydroxy‐benzamido)benzoate] | abrogated the TLR2 response of both heterodimers almost completely | abrogated the TLR2 response of both heterodimers almost completely | 15.4 | less than 40% | 13.6 | chemically stable | agonistic TLR2 activity (TLR2): no agonistic activity; cytotoxic effects / cell viability (in words) (HEK-Blue hTLR2 cells): nontoxic; lowest concentration reducing cell viability (HEK-Blue hTLR2 cells): > 50 µM; influence on other TLR subtypes (IL-8 secretion) (other TLR subtypes): no influence on other TLR subtypes
CCOC(=O)c1cccc(NC(=O)c2ccc(O)c(O)c2O)c1 [Compound 7, ethyl 3‐(2,3,4‐trihydroxy‐benzamido)benzoate] | – | – | – | – | – | instantaneous decomposition | –
CCOC(=O)c1cccc(NC(=O)c2cc(O)c(O)c(O)c2)c1 [Compound 8, ethyl 3‐(3,4,5‐trihydroxy‐benzamido)benzoate] | – | – | – | – | – | instantaneous decomposition | –
COC(=O)c1ccc(CC(=O)c2ccc(O)cc2O)o1 [Compound 9] | – | – | 42.4 | less than 40% | 42.9 | – | Pam2CSK4-induced TLR2/6 response (remaining) (TLR2/6): less than 50%
CCOC(=O)c1ccc(CC(=O)c2c(C)cc(O)cc2O)o1 [Compound 10] | – | – | 44 | less than 40% | 40.7 | – | Pam2CSK4-induced TLR2/6 response (remaining) (TLR2/6): less than 50%
CCCc1cc(C(=O)Cc2ccc(C(=O)OCC)o2)c(O)cc1O [Compound 11] | abrogated the TLR2 response of both heterodimers almost completely | abrogated the TLR2 response of both heterodimers almost completely | – | – | – | – | cytotoxic effects / cell viability (in words) (HEK-Blue hTLR2 cells): cytotoxic; lowest concentration reducing cell viability (HEK-Blue hTLR2 cells): 50 µM
